From patent US20210255193A1, “LYSINE REACTIVE PROBES AND USES THEREOF” (The Scripps Research Institute, priority 2017, published 2021) come the findings set out here.

Experiment [1] addresses T1, UBA6 Ubiquitin-like modifier-activating enzyme 6 (Homo sapiens, UniProt A0AVT1).
T1 construct: isoTOP-ABPP experiments performed in cell lysates (in vitro); endogenous in cells; host or cells: MDA-MB-231 soluble lysate
T1 sequence (A0AVT1 1-1052): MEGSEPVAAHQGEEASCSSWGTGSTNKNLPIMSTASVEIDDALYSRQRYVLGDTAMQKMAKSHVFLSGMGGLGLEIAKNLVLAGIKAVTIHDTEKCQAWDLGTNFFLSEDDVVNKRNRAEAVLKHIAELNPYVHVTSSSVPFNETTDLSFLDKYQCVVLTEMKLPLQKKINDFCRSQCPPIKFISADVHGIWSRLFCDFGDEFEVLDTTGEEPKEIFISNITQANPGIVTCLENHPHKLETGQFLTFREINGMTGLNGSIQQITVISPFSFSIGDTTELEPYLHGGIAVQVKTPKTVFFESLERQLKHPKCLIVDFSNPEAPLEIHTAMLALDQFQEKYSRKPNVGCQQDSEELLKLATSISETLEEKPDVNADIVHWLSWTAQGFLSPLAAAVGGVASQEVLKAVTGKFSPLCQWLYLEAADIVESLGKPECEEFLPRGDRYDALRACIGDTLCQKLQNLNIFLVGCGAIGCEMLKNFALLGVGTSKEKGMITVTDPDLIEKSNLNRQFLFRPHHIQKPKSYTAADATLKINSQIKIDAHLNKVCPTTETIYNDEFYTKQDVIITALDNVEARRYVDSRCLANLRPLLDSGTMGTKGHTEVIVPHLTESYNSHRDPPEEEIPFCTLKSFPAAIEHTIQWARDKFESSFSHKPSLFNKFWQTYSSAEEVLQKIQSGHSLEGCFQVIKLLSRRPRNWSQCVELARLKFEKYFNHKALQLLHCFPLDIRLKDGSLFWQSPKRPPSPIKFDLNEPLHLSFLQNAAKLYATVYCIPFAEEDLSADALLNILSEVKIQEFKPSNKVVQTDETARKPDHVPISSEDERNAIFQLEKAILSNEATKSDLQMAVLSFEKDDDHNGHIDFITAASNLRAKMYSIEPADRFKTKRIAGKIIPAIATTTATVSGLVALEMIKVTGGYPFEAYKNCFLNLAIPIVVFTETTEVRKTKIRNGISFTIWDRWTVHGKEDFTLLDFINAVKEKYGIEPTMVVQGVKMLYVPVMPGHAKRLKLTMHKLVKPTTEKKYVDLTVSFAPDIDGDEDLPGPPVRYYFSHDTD
Description: competitive isoTOP-ABPP. Format: binding. Particulars: for R value (DMSO/fragment) for probe 1 labeling: A0AVT1_K409. The method, boiled down:
(§1)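 Competition format: fragment (50 μM activated ester, 100 μM guanidinylating agent) versus vehicle in lysate, then lysine probe STP-alkyne at 0.1 mM for 1 h. Quantitation by light/heavy TEV-tag MS1 peak areas, reported as R.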

Experiment [2] concerns the target T2, HAUS4 HAUS augmin-like complex subunit 4 (Homo sapiens, UniProt Q9H6D7).
T2 construct: endogenous in cells; host or cells: MDA-MB-231 (soluble fraction of lysate)
T2 sequence (Q9H6D7 1-363): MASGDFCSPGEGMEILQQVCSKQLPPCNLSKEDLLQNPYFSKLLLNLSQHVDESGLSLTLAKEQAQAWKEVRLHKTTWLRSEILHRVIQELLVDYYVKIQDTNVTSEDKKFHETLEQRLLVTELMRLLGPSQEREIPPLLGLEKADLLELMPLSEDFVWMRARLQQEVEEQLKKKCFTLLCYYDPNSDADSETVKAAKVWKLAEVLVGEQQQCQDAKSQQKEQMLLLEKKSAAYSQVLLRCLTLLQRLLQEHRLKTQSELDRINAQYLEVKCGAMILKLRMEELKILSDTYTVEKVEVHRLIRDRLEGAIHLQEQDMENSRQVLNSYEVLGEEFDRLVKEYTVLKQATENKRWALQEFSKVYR
Put plainly: competitive isoTOP-ABPP. Type of experiment: binding. The note with it: for R value (DMSO/fragment) for probe 1 labeling: Q9H6D7_K271; for R value (DMSO/fragment) for probe 1 labeling / isoTOP-ABPP reactivity ratio at lysine Q9H6D7_K271 / isoTOP-ABPP ratio (R) at liganded lysine Q9H6D7_K271: 50 uM, in vitro; for R value (DMSO/fragment) for probe 1 labeling / isoTOP-ABPP reactivity ratio at lysine Q9H6D7_K271: 231 sol; for isoTOP-ABPP ratio (R) at liganded lysine Q9H6D7_K271: sol, 231. The method, boiled down:
as §1

Take `O=C(CCc1cn(-c2ccccc2)nc1-c1ccccc1)Oc1c(F)c(F)c(F)c(F)c1F` [fragment 19, Pentafluorophenyl 3-(1,3-diphenyl-1H-pyrazol-4-yl)propanoate]: in experiment [1] (50 uM, 231 sol, in vitro), the “R value (DMSO/fragment) for probe 1 labeling” value (shortened to “R value (DMSO/fragment)”) is given as 1.5.

In the case of `O=C(Oc1c(F)c(F)c(F)c(F)c1F)C(c1ccccc1)c1ccccc1` [fragment 20, Pentafluorophenyl 2,2-diphenylacetate], the “R value (DMSO/fragment)” value in experiment [2] worked out at 0.7.

As for `Cn1cc(CC(=O)Oc2c(F)c(F)c(F)c(F)c2F)c2ccccc21` [fragment 22, Pentafluorophenyl 2-(1-methyl-1H-indol-3-yl)acetate], the “R value (DMSO/fragment)” value in experiment [1] (50 uM, 231 sol, in vitro) came to 1.6; in experiment [2], 0.9.

For the compound `COc1cc(CCC(=O)Oc2c(F)c(F)c(F)c(F)c2F)cc(OC)c1OC` [fragment 23, Pentafluorophenyl 3-(3,4,5-trimethoxyphenyl)propanoate], in experiment [1] (50 uM, 231 sol, in vitro), the “R value (DMSO/fragment)” value stood at 1.3.

In the case of `O=C(Oc1c(F)c(F)c(F)c(F)c1F)C1CCN(C(=O)OCc2ccccc2)CC1` [fragment 24, 1-Benzyl 4-(pentafluorophenyl) piperidine-1,4-dicarboxylate], in experiment [2], the “isoTOP-ABPP reactivity ratio at lysine Q9H6D7_K271” value is listed as 0.8.

As to `O=C(Oc1c(F)c(F)c(F)c(F)c1F)c1ccc2ccccc2n1` [fragment 25, Pentafluorophenyl quinoline-2-carboxylate], the “isoTOP-ABPP reactivity ratio at lysine A0AVT1_K409” value in experiment [1] (50 uM, 231 sol, in vitro) was determined as 1.4.

For the compound `O=C(Oc1ccc([N+](=O)[O-])cc1[N+](=O)[O-])C(c1ccccc1)c1ccccc1` [fragment 30, 2,4-Dinitrophenyl 2,2-diphenylacetate], the “isoTOP-ABPP reactivity ratio at lysine Q9H6D7_K271” value in experiment [2] is listed as 1.0.

Consider `Cn1cc(CC(=O)Oc2ccc([N+](=O)[O-])cc2[N+](=O)[O-])c2ccccc21` [fragment 32, 2,4-Dinitrophenyl 2-(1-methyl-1H-indol-3-yl)acetate], for which the “isoTOP-ABPP reactivity ratio at lysine Q9H6D7_K271” value in experiment [2] is reported as 1.0.

As for `O=C(Oc1ccc([N+](=O)[O-])cc1[N+](=O)[O-])c1ccc(-c2ccccc2)cc1` [fragment 37, 2,4-Dinitrophenyl [1,1′-biphenyl]-4-carboxylate], the “isoTOP-ABPP ratio (R) at liganded lysine Q9H6D7_K271” value in experiment [2] was 0.7.

`O=C(Oc1ccc([N+](=O)[O-])cc1[N+](=O)[O-])c1ccccc1Nc1cccc(C(F)(F)F)c1` [fragment 40, 2,4-Dinitrophenyl 2-((3-(trifluoromethyl)phenyl)amino)benzoate]: the “isoTOP-ABPP ratio (R) at liganded lysine Q9H6D7_K271” value in experiment [2] is 0.7.

As to `CC(C)(C)OC(=O)NCCCC(=O)Oc1ccc([N+](=O)[O-])cc1[N+](=O)[O-]` [fragment 41, 2,4-Dinitrophenyl 4-((tert-butoxycarbonyl)amino)butanoate], the “isoTOP-ABPP ratio (R) at liganded lysine A0AVT1_K409” value in experiment [1] (50 uM, in vitro, sol, 231) turned out to be 6.6.

For the compound `N#Cc1ccc(C(=O)Oc2ccc([N+](=O)[O-])cc2[N+](=O)[O-])cc1` [fragment 44, 2,4-Dinitrophenyl 4-cyanobenzoate], the “isoTOP-ABPP ratio, lysine Q9H6D7_K271” value in experiment [2] (50 uM_231_sol_in vitro) was determined as 0.9.

Regarding `O=C(CCc1ccc2c(c1)OCO2)Oc1ccc([N+](=O)[O-])cc1[N+](=O)[O-]` [fragment 45, 2,4-Dinitrophenyl 3-(benzo[d][1,3]dioxol-5-yl)propanoate], the “isoTOP-ABPP ratio, lysine A0AVT1_K409” value in experiment [1] (50 uM_231_sol_in vitro) came to 6.3. In addition, the “isoTOP-ABPP ratio, lysine Q9H6D7_K271” value in experiment [2] (50 uM_231_sol_in vitro) stood at 1.1.

Turning to `CC(C)(C)OC(=O)N=C(NC(=O)OC(C)(C)C)n1cccn1` [fragment 50, reference compound], in experiment [2] (100 uM_231_sol_in vitro), the “isoTOP-ABPP ratio, lysine Q9H6D7_K271” value was found to be 4.3.
